Reference: EP0413544A2, “Purine derivatives, process for their preparation, pharmaceutical compositions and intermediates” (Beecham Group p.l.c., priority 1989, dated 1991)
Where two headings read alike, the source gives them in different places.

Test: Blood concentration of E1 after oral dosing of the compounds to mice (HPLC)
Assay type: in vivo
Settings: fasted female Balb/c mice, pooled blood of 3 mice
Method: Compounds were administered as single doses of 0.2mmole/kg in 0.1ml of 1% carboxymethyl cellulose by oral gavage to female Balb/c mice weighing 20g. Food was withheld from the mice for 18 hours prior to the start of the experiment. Blood was collected by cardiac puncture using heparinised syringes 15, 60 and 180 mins after dosing. Equal volumes (0.2ml) from 3 mice were pooled at each time point and 0.6ml of ice-cold ethanol was added. Following chilling at -20°C and centrifugation, 0.5ml of supernatant was dried under reduced pressure. The sample was then reconstituted with 0.5ml of 0.4M NH₄OAc (pH 6.0) and analysed by HPLC.

- concentration (Expt. 1, 15 min after single oral gavage dose of 0.2mmole/kg in 1% carboxymethyl cellulose, read-out: 9-(3-Hydroxypropoxy)guanine (E1) conc. (µM) in blood at time (min) after dosing: 15): 5.2 µM
- concentration (Expt. 1, 60 min after single oral gavage dose of 0.2mmole/kg in 1% carboxymethyl cellulose, read-out: 9-(3-Hydroxypropoxy)guanine (E1) conc. (µM) in blood at time (min) after dosing: 60): 2 µM
- concentration (Expt. 2, 15 min after single oral gavage dose of 0.2mmole/kg in 1% carboxymethyl cellulose, read-out: 9-(3-Hydroxypropoxy)guanine (E1) conc. (µM) in blood at time (min) after dosing: 15): 11 µM
- concentration at 1 h (mouse, 200 umol/kg, Expt. 2, 60 min after single oral gavage dose of 0.2mmole/kg in 1% carboxymethyl cellulose, read-out: 9-(3-Hydroxypropoxy)guanine (E1) conc. (µM) in blood at time (min) after dosing: 60): 3.3 µM
SMILES: Nc1nc(O)c2ncn(OCCCO)c2n1 [Example E1, 9-(3-hydroxyprop-1-oxy)guanine]
